Reference: patent publication US10774054B2, “FXR (NR1H4) modulating compounds” (Gilead Sciences, Inc., priority 2016, dated 2020)

Key:
[1] = Metabolite ID assay in human liver microsomes; assay type: in vitro ADME; conditions: human liver microsomes 1 mg/mL, 1 mM NADPH, 5 μM substrate, 0, 30, 60 minutes
Protocol: The metabolic stability of Example 3 and Comparative Example 1 in human liver microsmoes was conducted according to the following procedure. Human liver microsomes (35 μL protein concentration 20 mg/mL), 350 μL of 100 mM potassium phosphate buffer (pH 7.4), 245 μL of deionized water and 0.7 μL of compound stock solution (5 mM) were combined in a 1.5 mL microcentrifuge tube. The tube was sealed and gently vortexed for 10 seconds, then placed in an Eppendorf ThermoMixer C and pre-warmed at 37° C. with shaking at 1100 rpm for 5 minutes.
NADPH solution (70 μL; 10 mM in water) was added while shaking, the mixture was aspirated several times with pipet, and 200 μL was removed to a fresh 1.5 mL microcentrifuge tube on ice containing 200 μL of cold acetonitrile. […]
The chilled aliquots were centrifuged at 14,300 rpm in a microcentrifuge for 10 minutes at 10° C., then the supernatant was transferred to a deepwell (1 mL) 96 well plate and sealed with a silicon mat. […] 20 μL samples were analyzed by UPLC-MS in order to identify and quantify the metabolites (Agilent 1290 G4220 binary pump UPLC with Agilent G1316 TCC column oven; Waters Acquity UPLC BEH C18 (130 Å pore size, 1.7 μm particle size, 2.1×50 mm) column held at 40° C.; Agilent 1290 G4212 DAD diode array with wavelength range 190 to 400 nm; Thermo Electron Orbitrap Elite mass spectrometer in FTMS positive mode). […]

[2] = Drug concentration in plasma of Cynomolgus monkey after oral dosing; assay type: in vivo; conditions: 300 mg/kg
Excerpt: Each dosing group consisted of three male Cynomolgus monkeys.

formation of diol metabolite M1 [1]	maximal plasma AUC of the two compounds compared [2]	Compound
metabolized to a diol compound (M1)		O=C(O)c1cnc(N2CC(O)(c3ccc(OCc4c(-c5c(Cl)cccc5Cl)noc4C4CC4)cc3Cl)C2)c(F)c1 [Comparative Example 1]
	comparable	O=C(O)c1cnc(N2CC(O)(c3ccc(OCc4c(-c5c(Cl)cc(F)cc5Cl)noc4C4CC4)cc3Cl)C2)c(F)c1 [Example 3, 6-(3-(2-chloro-4-((5-cyclopropyl-3-(2,6-dichloro-4-fluorophenyl)isoxazol-4-yl)methoxy)phenyl)-3-hydroxyazetidin-1-yl)-5-fluoronicotinic acid]
